Measurements from BigSolDB 2.1.

O=S(=O)([O-])c1cccc2ccccc12.[Na+]
solubility (mole fraction)
Conditions	278.15 K	283.15 K	288.15 K	293.15 K	298.15 K	303.15 K	308.15 K	313.15 K	318.15 K	323.15 K
in 1,4-dioxane	0.0004	0.000497	0.000602	0.000722	0.000842	0.00101	0.00121	0.00143	0.00169	0.00203
in acetone	9.36e-05	0.000122	0.000156	0.000197	0.00024	0.000288	0.000351	0.000417	0.000501	0.0006
in cyclohexanone	0.000222	0.000299	0.00038	0.000481	0.000603	0.000743	0.0009	0.00108	0.00127	0.00152
in ethanol	0.000297	0.000386	0.000513	0.000668	0.000829	0.00106	0.00132	0.00167	0.00217	0.00277
in ethyl acetate	4.49e-05	5.77e-05	7.34e-05	9.37e-05	0.000119	0.000148	0.000184	0.000227	0.000269	0.000311
in isopropanol	0.000108	0.000145	0.000204	0.000275	0.000351	0.000458	0.000588	0.000727	0.000886	0.00109
